The source made the active and inactive calls. The calls are words filed in the database; no cut-off is given here.
Key:
[1] = test system: Rattus norvegicus; assay: Antidiabetic activity in Zucker rat sub-chronic fa/fa prediabetic model assessed as decrease in plasma glucose AUC (0 to 120 mins) at 10 mg/kg, po qd during 10 days study by OGTT relative to control; assay type: functional; parameters: scale not given: the % may be the effect or the level left
[2] = test system: Rattus norvegicus; assay: Toxicity in Zucker rat sub-chronic fa/fa prediabetic model assessed as effect on liver enzymes at 10 mg/kg, po qd during 10 days study; assay type: organism-based; conditions: in vivo, 240 h
[3] = target: Estrogen receptor (Homo sapiens, UniProt P03372); assay: Inhibition of fluormone ES2 green binding to recombinant full length human ERalpha expressed in insect cells by fluorescence polarization assay
[4] = target: Peroxisome proliferator-activated receptor alpha (Homo sapiens, UniProt Q07869); assay: Agonist activity at recombinant GST-tagged human PPARalpha LBD assessed as fluorescein-labeled coactivator peptide recruitment preincubated with enzyme followed by coactivator addition by LanthaScreen TR-FRET assay
[5] = target: Peroxisome proliferator-activated receptor delta (Homo sapiens, UniProt Q03181); assay: Agonist activity at recombinant GST-tagged human PPARdelta LBD assessed as fluorescein-labeled coactivator peptide recruitment preincubated with enzyme followed by coactivator addition by LanthaScreen TR-FRET assay
[6] = target: Oxysterols receptor LXR-beta (Homo sapiens, UniProt P55055); assay: Agonist activity at recombinant GST-tagged human LXRbeta LBD assessed as fluorescein-labeled coactivator peptide recruitment preincubated with enzyme followed by coactivator addition by LanthaScreen TR-FRET assay
[7] = target: Retinoic acid receptor RXR-alpha (Homo sapiens, UniProt P19793); assay: Agonist activity at recombinant GST-tagged human RXRalpha LBD assessed as fluorescein-labeled coactivator peptide recruitment preincubated with enzyme followed by coactivator addition by LanthaScreen TR-FRET assay
[8] = target: Oxysterols receptor LXR-alpha (Homo sapiens, UniProt Q13133); assay: Antagonist activity at recombinant GST-tagged human LXRalpha LBD assessed as inhibition of TO901317-induced fluorescein-labeled coactivator peptide recruitment preincubated with enzyme followed by coactivator addition by LanthaScreen TR-FRET assay
[9] = Half life in CD-1 mouse at 5 mg/kg, iv by LC-MS analysis; assay type: ADME, organism-based; conditions: in vivo
[10] = Terminal half life in […] at 15 mg/kg administered via oral gavage by LC-MS analysis; assay type: ADME, organism-based; conditions: in vivo, read-out: beta t1/2 (converted)
[11] = test system: Rattus norvegicus; assay: Antidiabetic activity in po dosed Zucker rat sub-chronic fa/fa prediabetic model assessed as reduction in blood glucose AUC (0 to 120 min) once daily for 31 days measured on day 29 post dose by OGTT; assay type: functional, organism-based
[12] = Cmax in Zucker rat sub-chronic fa/fa prediabetic model at 10 mg/kg, po qd measured on day 1 post dose; assay type: ADME, organism-based; parameters: dose 10 mg/kg, route oral; conditions: in vivo
[13] = test system: Rattus norvegicus; assay: Toxicity in Zucker rat sub-chronic fa/fa prediabetic model assessed as serum cholesterol level at 1 mg/kg, po qd for 31 days measured on day 32 (reference value: 295 +/- 91 mg/dl); assay type: organism-based; conditions: in vivo, 744 h
[14] = test system: Rattus norvegicus; assay: Toxicity in Zucker rat sub-chronic fa/fa prediabetic model assessed as serum BUN level at 1 mg/kg, po qd for 31 days measured on day 32 (reference value: 28.3 +/- […]); assay type: organism-based; conditions: in vivo, 744 h
[15] = Drug uptake in kidney of Zucker rat sub-chronic fa/fa prediabetic model at 12.5 mg/kg, po qd for 11 days; assay type: ADME, organism-based; conditions: read-out: Drug uptake
[16] = test system: Rattus norvegicus; assay: Antidiabetic activity in Zucker rat sub-chronic fa/fa prediabetic model assessed as serum adiponectin level at 1 mg/kg, po qd for 4 days by ELISA (reference value: 9.1%); assay type: functional
[17] = test system: Rattus norvegicus; assay: Antidiabetic activity in Zucker rat sub-chronic fa/fa prediabetic model assessed as serum adiponectin level at 3 mg/kg, po qd for 4 days by ELISA (reference value: 9.1%); assay type: functional
[18] = test system: Rattus norvegicus; assay: Antidiabetic activity in Zucker rat sub-chronic fa/fa prediabetic model assessed as increase in serum adiponectin level administered orally once daily for 4 days by ELISA; assay type: functional, organism-based
[19] = AUC (0 to 24 hrs) in […] model at 3 mg/kg, po qd measured on day 1 post dose; assay type: ADME, organism-based; parameters: dose 3 mg/kg, time < 24 hr, route oral; conditions: in vivo
[20] = test system: Rattus norvegicus; assay: Toxicity in […] chronic ob/ob model assessed as body weight at 3 mg/kg, po qd for 28 days measured on day 28 post last dose (reference value: 47.3 +/- 1.06 g); assay type: organism-based; conditions: in vivo, 672 h
[21] = test system: Rattus norvegicus; assay: Toxicity in […] chronic ob/ob model assessed as brown adipose tissue weight at 50 mg/kg, po qd for 31 days measured on day 32 (reference value: 0.59 +/- 0.05 g); assay type: organism-based; conditions: in vivo, 744 h
[22] = test system: Rattus norvegicus; assay: Toxicity in […] model assessed as serum ALT level at 50 mg/kg, po qd for 31 days measured on day 32 (reference value: 127 +/- 9 U/L); assay type: organism-based; conditions: in vivo, 744 h
[23] = test system: Rattus norvegicus; assay: Toxicity in […] model assessed as serum AST level at 50 mg/kg, po qd for 31 days measured on day 32 (reference value: 180 +/- 26 U/L); assay type: organism-based; conditions: in vivo, 744 h
[24] = test system: Rattus norvegicus; assay: Increase in IDH3A mRNA expression in epididymal white adipose tissue of Zucker rat sub-chronic fa/fa prediabetic model at 10 mg/kg, po qd for 15 days by RT-PCR method; assay type: functional, organism-based
[25] = test system: Rattus norvegicus; assay: Increase in ADIPOQ mRNA expression in epididymal white adipose tissue of Zucker rat sub-chronic fa/fa prediabetic model at 10 mg/kg, po qd for 15 days by RT-PCR method; assay type: functional, organism-based
[26] = test system: Rattus norvegicus; assay: Effect on IDH3B gene expression in epididymal white adipose tissue of Zucker rat sub-chronic fa/fa prediabetic model at 10 mg/kg, po qd for 15 days by microarray analysis relative to control; assay type: functional
[27] = test system: Rattus norvegicus; assay: Effect on TNF gene expression in epididymal white adipose tissue of Zucker rat sub-chronic fa/fa prediabetic model at 10 mg/kg, po qd for 15 days by microarray analysis relative to control; assay type: functional
[28] = test system: Rattus norvegicus; assay: Effect on NFKB1 gene expression in epididymal white adipose tissue of Zucker rat sub-chronic fa/fa prediabetic model at 10 mg/kg, po qd for 15 days by microarray analysis relative to control; assay type: functional
[29] = test system: Rattus norvegicus; assay: Effect on MLYCD gene expression in epididymal white adipose tissue of Zucker rat sub-chronic fa/fa prediabetic model at 10 mg/kg, po qd for 15 days by microarray analysis relative to control; assay type: functional
[30] = test system: Rattus norvegicus; assay: Effect on CTGF gene expression in epididymal white adipose tissue of Zucker rat sub-chronic fa/fa prediabetic model at 10 mg/kg, po qd for 15 days by microarray analysis relative to control; assay type: functional
[31] = test system: Rattus norvegicus; assay: Effect on BAD gene expression in epididymal white adipose tissue of Zucker rat sub-chronic fa/fa prediabetic model at 10 mg/kg, po qd for 15 days by microarray analysis relative to control; assay type: functional
[32] = test system: Rattus norvegicus; assay: Effect on HMGCS1 gene expression in epididymal white adipose tissue of Zucker rat sub-chronic fa/fa prediabetic model at 10 mg/kg, po qd for 15 days by microarray analysis relative to control; assay type: functional
[33] = test system: Rattus norvegicus; assay: Effect on ACAT1 gene expression in epididymal white adipose tissue of Zucker rat sub-chronic fa/fa prediabetic model at 10 mg/kg, po qd for 15 days by microarray analysis relative to control; assay type: functional

Sequence of Oxysterols receptor LXR-beta (P55055 whole entry, the tested form may be a part): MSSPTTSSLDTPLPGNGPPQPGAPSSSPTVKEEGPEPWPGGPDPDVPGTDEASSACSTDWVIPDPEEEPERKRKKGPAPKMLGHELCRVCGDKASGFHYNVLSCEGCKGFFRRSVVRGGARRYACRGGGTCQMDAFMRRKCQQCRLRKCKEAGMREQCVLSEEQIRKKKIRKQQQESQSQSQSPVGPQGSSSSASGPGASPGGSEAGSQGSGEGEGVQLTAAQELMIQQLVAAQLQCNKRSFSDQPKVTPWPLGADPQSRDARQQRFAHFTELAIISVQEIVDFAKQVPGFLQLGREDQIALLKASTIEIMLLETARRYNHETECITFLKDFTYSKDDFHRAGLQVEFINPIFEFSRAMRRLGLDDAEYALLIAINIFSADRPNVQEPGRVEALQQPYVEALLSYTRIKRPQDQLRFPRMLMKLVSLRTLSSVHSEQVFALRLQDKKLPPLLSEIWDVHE
Sequence of Retinoic acid receptor RXR-alpha (P19793 whole entry, the tested form may be a part): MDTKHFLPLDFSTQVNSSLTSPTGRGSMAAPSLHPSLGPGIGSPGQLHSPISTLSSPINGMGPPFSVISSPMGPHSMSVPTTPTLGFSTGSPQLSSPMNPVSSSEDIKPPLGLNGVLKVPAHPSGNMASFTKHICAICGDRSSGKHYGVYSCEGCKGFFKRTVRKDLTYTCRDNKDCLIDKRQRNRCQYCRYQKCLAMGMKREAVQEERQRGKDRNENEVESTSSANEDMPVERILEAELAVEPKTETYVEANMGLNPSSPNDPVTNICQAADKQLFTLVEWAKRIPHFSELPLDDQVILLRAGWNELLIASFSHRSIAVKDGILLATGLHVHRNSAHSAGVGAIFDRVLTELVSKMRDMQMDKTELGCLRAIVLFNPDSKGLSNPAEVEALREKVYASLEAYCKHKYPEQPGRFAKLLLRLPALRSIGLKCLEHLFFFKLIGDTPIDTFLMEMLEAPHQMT
Sequence of Oxysterols receptor LXR-alpha (Q13133 whole entry, the tested form may be a part): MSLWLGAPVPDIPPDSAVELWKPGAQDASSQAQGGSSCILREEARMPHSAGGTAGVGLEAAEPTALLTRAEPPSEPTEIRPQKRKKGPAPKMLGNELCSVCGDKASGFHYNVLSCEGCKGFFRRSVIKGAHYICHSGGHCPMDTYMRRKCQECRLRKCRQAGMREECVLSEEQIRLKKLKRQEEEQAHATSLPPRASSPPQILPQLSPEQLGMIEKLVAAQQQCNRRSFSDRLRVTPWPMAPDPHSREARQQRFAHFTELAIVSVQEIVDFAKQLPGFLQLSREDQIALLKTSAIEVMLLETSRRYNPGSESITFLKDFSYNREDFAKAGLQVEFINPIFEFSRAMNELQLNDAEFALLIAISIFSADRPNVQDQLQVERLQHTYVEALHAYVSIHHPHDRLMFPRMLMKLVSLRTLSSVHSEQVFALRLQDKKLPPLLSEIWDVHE
Sequence of Estrogen receptor (P03372 whole entry, the tested form may be a part): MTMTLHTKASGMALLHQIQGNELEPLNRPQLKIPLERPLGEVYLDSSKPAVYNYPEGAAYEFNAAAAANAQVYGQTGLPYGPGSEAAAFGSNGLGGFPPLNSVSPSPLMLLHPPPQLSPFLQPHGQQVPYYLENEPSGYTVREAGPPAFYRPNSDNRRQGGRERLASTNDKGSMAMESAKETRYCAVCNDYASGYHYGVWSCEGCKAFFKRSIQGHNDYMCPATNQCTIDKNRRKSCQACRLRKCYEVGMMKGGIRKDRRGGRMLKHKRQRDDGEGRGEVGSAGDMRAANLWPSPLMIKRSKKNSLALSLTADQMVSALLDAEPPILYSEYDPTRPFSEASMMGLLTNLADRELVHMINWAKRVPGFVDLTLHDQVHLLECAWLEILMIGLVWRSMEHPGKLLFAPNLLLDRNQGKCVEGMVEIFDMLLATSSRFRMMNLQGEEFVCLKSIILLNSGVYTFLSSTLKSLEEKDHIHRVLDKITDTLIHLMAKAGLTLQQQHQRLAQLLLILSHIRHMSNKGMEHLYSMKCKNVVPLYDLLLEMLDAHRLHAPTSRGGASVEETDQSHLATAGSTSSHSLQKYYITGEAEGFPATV
Sequence of Peroxisome proliferator-activated receptor alpha (Q07869 whole entry, the tested form may be a part): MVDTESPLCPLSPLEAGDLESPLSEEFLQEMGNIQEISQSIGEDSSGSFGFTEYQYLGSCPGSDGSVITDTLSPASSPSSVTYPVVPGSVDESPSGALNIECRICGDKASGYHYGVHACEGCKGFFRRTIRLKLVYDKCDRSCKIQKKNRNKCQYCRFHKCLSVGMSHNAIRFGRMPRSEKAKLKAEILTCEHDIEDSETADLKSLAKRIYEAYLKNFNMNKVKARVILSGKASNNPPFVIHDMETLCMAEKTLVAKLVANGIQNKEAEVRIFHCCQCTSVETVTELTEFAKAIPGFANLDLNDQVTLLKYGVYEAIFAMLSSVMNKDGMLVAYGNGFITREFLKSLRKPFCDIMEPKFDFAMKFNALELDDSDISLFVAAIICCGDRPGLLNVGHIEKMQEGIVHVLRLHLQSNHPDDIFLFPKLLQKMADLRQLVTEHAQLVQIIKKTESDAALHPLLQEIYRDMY
Sequence of Peroxisome proliferator-activated receptor delta (Q03181 whole entry, the tested form may be a part): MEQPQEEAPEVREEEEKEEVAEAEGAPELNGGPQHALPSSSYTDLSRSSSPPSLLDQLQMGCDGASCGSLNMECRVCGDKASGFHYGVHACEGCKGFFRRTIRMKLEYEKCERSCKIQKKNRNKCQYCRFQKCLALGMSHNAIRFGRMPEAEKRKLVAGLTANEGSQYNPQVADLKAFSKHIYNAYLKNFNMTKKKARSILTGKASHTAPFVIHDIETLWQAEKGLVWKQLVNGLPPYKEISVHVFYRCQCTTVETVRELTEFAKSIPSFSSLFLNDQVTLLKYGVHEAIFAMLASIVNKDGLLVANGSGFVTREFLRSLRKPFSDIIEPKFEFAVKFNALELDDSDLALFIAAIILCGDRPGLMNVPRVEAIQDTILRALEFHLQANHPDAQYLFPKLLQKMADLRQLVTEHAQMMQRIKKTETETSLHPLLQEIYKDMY

CN1CC[C@@H](N2C(=O)S/C(=C\c3ccc4c(cnn4Cc4ccc(Cl)cc4C(F)(F)F)c3)C2=O)[C@H](F)C1
Activity [1]: -46% | Activity [2]: Non-Toxic | IC50 [3]: > 10 µM | EC50 [4]: > 10 µM | EC50 [5]: > 10 µM | EC50 [6]: > 10 µM | EC50 [7]: > 10 µM | IC50 [8]: > 10 µM | half-life [9]: 11.8 h | half-life [10]: 6.7 h | Activity [11]: Dose-dependent effect | Cmax [12]: 1570 ng/mL | Activity [13]: 328 mg/dL | Activity [14]: 26.9 mg/dL | concentration at 264 h [15]: 2660 ng/g | Activity [16]: 8.6% | Activity [17]: 11.1% | Activity [18]: Dose-dependent effect | AUC(0-t) at 24 h [19]: 1400 ng·h/mL | Activity [20]: 43.5 g | Activity [21]: 1.31 g | Activity [22]: 149 U/L | Activity [23]: 199 U/L | Activity [24]: Active | Activity [25]: Active | fold change (FC) [26]: 1.655 | fold change (FC) [27]: -1.24 | fold change (FC) [28]: -1.254 | fold change (FC) [29]: 1.608 | fold change (FC) [30]: 1.458 | fold change (FC) [31]: -1.216 | fold change (FC) [32]: -1.387 | fold change (FC) [33]: 1.634

Source: ChEMBL document CHEMBL4130359, “Indazole-based ligands for estrogen-related receptor α as potential anti-diabetic agents” (Eur J Med Chem, 2017)
